Data taken from patent US6358929B1, “Use of a peptide preventing the intolerance reactions of the skin, in particular in cosmetic compositions” (L'Oreal, priority 1998, dated 2002).

Experiments:
female Balb/C mice [1] = assay: Contact hypersensitivity to TNCB after sensitization, peptide injected i.v. before sensitization; assay type: in vivo, mouse; settings: 1.5 μg peptide i.v. (tail vein) 2 hours before TNCB sensitization; triggering 7 days later; measured 24 hours after triggering; positive controls 9.8×10^−2 mm, negative controls 1×10^−2 mm
Procedure: The study is carried out on 7-to 10-week-old female Balb/C mice.
A dose of 1.5 μg of the peptide studied (in solution in PBS buffer containing 0.1% of mouse serum) is injected into a vein of the tail of the mice 2 hours before the sensitization reaction.
The sensitization reaction consists in applying, with a brush, 100 μl of a solution containing 0.15% of TNCB in an acetone-olive oil (4:1) mixture to the shaved skin of the abdomen of the mice.
The triggering reaction is carried out 7 days after the sensitization reaction. This triggering reaction consists in applying to the two sides of an ear 10 microlitres of a solution containing 0.8% of TNCB in a vehicle consisting of the acetone-olive oil mixture already mentioned above.
To the other ear, only this mixture of acetone and olive oil is applied, for comparison.
The intensity of a possible contact hypersensitivity reaction is evaluated by estimating the size of the oedema of the ear treated with TNCB, in comparison with the ear treated with the vehicle alone. For that, the thickness of the ears is measured and compared with the aid of a micrometer screw. This measurement is carried out 24 hours after the triggering reaction.
The TNCB is also applied to the ear of control mice which have not been previously sensitized (negative controls).

female Balb/C mice [2] = assay: Contact hypersensitivity to TNCB after a second sensitization (tolerance test); assay type: in vivo, mouse; settings: same mice re-sensitized with TNCB 14 days after the first experiment, no new peptide; triggering 7 days later; measured 24 hours later; positive controls 14×10^−2 mm
Procedure: 14 days after the end of the experiment described in a) above, the same mice are subjected to a new sensitization reaction on the shaved skin of the back, as described in a).
7 days later, the triggering test is carried out by application of TNCB to the ear, and 24 hours later, the degree of swelling of the ear is measured.
The aim of this second experiment is to distinguish between a possible a specific temporary immunosuppression and a specific immunological tolerance.

female Balb/C mice [3] = assay: Contact hypersensitivity to TNCB, peptide applied topically in a water-in-oil cream; assay type: in vivo, mouse; settings: peptide in water-in-oil cream applied to the area to be sensitized 2 hours before sensitization; 24 hours after triggering; positive controls 7×10^−2 mm
Procedure: The procedure is carried out as in a) above, but the peptide, incorporated in a cream of the water-in-oil type, is applied to the area to be sensitized 2 hours before the sensitization.
24 hours after the triggering reaction, the increase in the thickness of the ear is on average 3×10^−2 mm in the treated mice and 7×10^−2 mm in the positive controls.

[4] = tested on: volunteer patients in whom a contact allergy to nickel was suspected; assay: Topical effect on contact hypersensitivity reaction to nickel sulphate patch; assay type: in vivo, humans; settings: cream containing 100 μM peptide under occlusive dressing on the back, 2 hours before 5% nickel sulphate patch; examined 24 hours later
Procedure: This study was carried out on 18 to 65 year-old volunteer patients in whom a contact allergy to nickel was suspected.
On day 0, there are applied with an occlusive dressing, to areas of the skin of the back, on the one hand a cream containing 100 μM of the peptide of formula II, and on the other hand the cream alone, without peptide, used as placebo.
Two hours later, patches impregnated with petroleum jelly containing nickel sulphate at a concentration of 5% are applied to the same areas of the skin, and also to an adjacent area that has not been pretreated.
24 hours later, the patients are examined. Those who developed a contact hypersensitivity reaction over the area treated with the placebo (and also over the adjacent area which received only the application of nickel salt), and who are therefore people who were already sensitized to nickel, are 14 in number.

Ac-D-Lys-D-Pro-D-Val-NH2 [II]
increase in the thickness of the ear (female Balb/C mice [1]): about 2.5×10^−2 mm | degree of swelling of the ear (increase in the thickness of the ear) (female Balb/C mice [2]): ~3.5×10^−2 mm | increase in the thickness of the ear (female Balb/C mice [3]): 3×10^−2 mm | people (out of 14 already sensitized to nickel) who did not develop any contact hypersensitivity reaction over the area treated with the peptide [4]: 7
